The term IC90 denotes the point of the concentration-response curve where the effect stands at 90%. By IC50 is commonly meant the concentration that inhibits the measured activity by half. Higher therefore signals weaker potency in that assay. By Ki is commonly meant the equilibrium dissociation constant of an inhibitor or competing ligand from its target. Higher therefore signals lower affinity. Usually Km stands for the substrate concentration at which the rate is half of its maximum.

Here are results for 24 compounds from US12091399B2, “Phenyltetrazole derivatives as plasma kallikrein inhibitors” (Boehringer Ingelheim International GmbH, priority 2018, dated 2024).

What all share (format): biochemical
The target of assay [1] is PKK in kaolin activated human platelet poor plasma (Homo sapiens (Human), UniProt P03952). Briefly: Inhibition of PKK in kaolin activated human PPP. Conditions: global fit over 25, 75, 250, 750 μg/mL kaolin, 37° C. As for the experimental part: Platelet poor plasma (PPP) obtained from human wholeblood, anticoagulated with Na-Citrate, was incubated with various concentrations of the test compound together with either 25, 75, 250, or 750 μg/mL kaolin in assay buffer for 20 min at 37° C. such that for each kaolin dose used a concentration response was obtained for the test compound.
Sequence of PKK in kaolin activated human platelet poor plasma (P03952 391-638): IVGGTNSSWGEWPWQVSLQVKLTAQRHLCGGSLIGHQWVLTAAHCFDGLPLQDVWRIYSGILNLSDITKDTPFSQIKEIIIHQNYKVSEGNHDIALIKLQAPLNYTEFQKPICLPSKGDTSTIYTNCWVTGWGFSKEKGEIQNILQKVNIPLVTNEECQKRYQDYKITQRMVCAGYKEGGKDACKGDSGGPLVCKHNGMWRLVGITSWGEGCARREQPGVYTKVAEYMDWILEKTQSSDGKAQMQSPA
Sequence of PKK in kaolin activated human platelet poor plasma (P03952 20-390 partner): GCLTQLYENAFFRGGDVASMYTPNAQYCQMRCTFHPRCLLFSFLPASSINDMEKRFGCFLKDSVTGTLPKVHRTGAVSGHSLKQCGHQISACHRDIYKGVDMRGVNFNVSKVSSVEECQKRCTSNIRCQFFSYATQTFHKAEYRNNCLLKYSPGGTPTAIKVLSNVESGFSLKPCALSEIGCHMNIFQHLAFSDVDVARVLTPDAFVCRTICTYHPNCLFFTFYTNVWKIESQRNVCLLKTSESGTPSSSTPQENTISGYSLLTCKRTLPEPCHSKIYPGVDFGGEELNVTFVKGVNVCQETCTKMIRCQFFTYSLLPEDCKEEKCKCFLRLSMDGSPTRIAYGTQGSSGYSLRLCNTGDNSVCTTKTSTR
The number of the compound corresponds to the number of the Example in the experimental section.

The target of assay [2] is T1, Human PKK (Homo sapiens (Human), UniProt P03952). Nature of the assay: Inhibition of PKK using an endpoint assay (human PKK). Conditions: 1 h at rt, 0.10 μM H-Pro-Phe-Arg-AMC. As for the experimental part:
(§1) The ability of compounds of formula (I) to inhibit plasma kallikrein (PKK), Factor XIIa (FXIIa), Factor XIa (FXIa), Factor Xa (FXa), Factor IIa (alpha-thrombin; FIIa), plasmin, trypsin, tissue kallikrein 1 (TK1), Factor Vila (FVIIa), or FVIIa complexed with Tissue Factor, phospholipids and CaCl2) (FVIIa/TF/PL/CaCl2) was determined using the following biochemical assays in assay buffer (100 mM Tris, 150 mM NaCL, adjusted to a pH of 7.8 with HCl, and containing 0.1% (w/v) BSA and 0.05% (v/v) Tween20) in the presence of 1% (v/v) DMSO:
Subsequently, PPACK II (Calbiochem) was added as a stop solution to achieve a final concentration of 1 μM and fluorescence was measured using an Envision Reader (PerkinElmer) with the wavelength excitation setting of 355 nm and the wavelength emission setting of 460 nm. The number of the compound corresponds to the number of the Example in the experimental section.

The target in assay [3] is T1, Human PKK. Briefly: Inhibition of PKK (Ki), kinetic assay. Conditions: 24° C., 0.25 mM H-Pro-Phe-Arg-AMC, IC50 corrected for KM. Here is the method: as §1
Human PKK (1.78 nM or 0.025 U/mL; Enzyme Research Laboratories) was incubated at 24° C. with 0.25 mM fluorogenic substrate H-Pro-Phe-Arg-AMC (11295 from Bachem) and various concentrations of the test compound in assay buffer. Measurements were performed in a kinetic interval every 2nd minute for 16 min using a Spectramax M5 (Molecular Devices) with the following settings of the wavelength excitation of 350 nm and wavelength emission of 450 nm. The number of the compound corresponds to the number of the Example in the experimental section.
(§2) The pIC50 values were then fitted using a four-parametric fitting procedure using GraphPad Prism (version 6; GraphPad Software, Inc.). Respective Ki values were obtained by correction of the IC50 values for the respective KM value of the used substrate (see Table A for the obtained KM values of the used substrates) using the following formula: […]
Where the IC50 is in mol/L and the KM value in mmol/L.

For another assay, the target named is human TK1 (Homo sapiens (Human), UniProt P06870). Nature of the assay: Inhibition of TK1 (Ki). Conditions: substrate KM, enzyme TK1. As for the experimental part: as §1
Sequence of human TK1 (P06870 25-262): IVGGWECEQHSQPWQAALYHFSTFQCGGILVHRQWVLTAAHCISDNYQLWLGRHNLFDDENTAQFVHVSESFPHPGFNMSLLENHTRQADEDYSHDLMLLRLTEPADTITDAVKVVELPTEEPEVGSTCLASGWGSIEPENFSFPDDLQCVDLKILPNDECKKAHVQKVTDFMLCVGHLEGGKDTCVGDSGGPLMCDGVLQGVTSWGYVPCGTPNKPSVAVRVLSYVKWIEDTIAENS
Prior to the assay, human TK1 (R&D Systems) was activated by incubation with human trypsin (Calbiochem) in a 1:10,000 ratio for 15 min at 37° C. For assaying TK1 inhibitory activity, activated TK1 (31.25 nM or 1 U/mL) was incubated at 24° C. with 0.1 mM fluorogenic substrate H-Pro-Phe-Arg-AMC (11295 from Bachem) and various concentrations of the test compound in assay buffer. Measurements were performed in a kinetic interval every 2nd minute for 16 min using a Spectramax M5 (Molecular Devices) with the following settings of the wavelength excitation of 350 nm and wavelength emission of 450 nm.
(§3) The pIC50 values were then fitted using a four-parametric fitting procedure using GraphPad Prism (version 6; GraphPad Software, Inc.). […]

A further assay has as its target Human plasmin (Homo sapiens (Human), UniProt P00747). Nature of the assay: Inhibition of plasmin (Ki). As to conditions: substrate KM, enzyme Plasmin. Here is the method:
as §1
Measurements were performed in a kinetic interval every 2nd minute for 16 min using a Spectramax M5 (Molecular Devices) measuring the optical absorbance at 405 nm.
as §2

The next assay has as its target FVIIa/TF/PL/CaCl2 (Homo sapiens (Human), UniProt P08709). Briefly: Inhibition of FVIIa/TF/PL/CaCl2 (Ki). Conditions: substrate KM, enzyme FVIIa/TF/PL/CaCl2. Here is the method:
as §1
Human FVIIa (300 nM or 585 U/mL; Enzyme Research Laboratories) together with 10 mM CaCl2)*2H2O and 13.3% (v/v) Dade®Innovin® (Siemens; OQUMI94E0002(5534), which contains recombinant human tissue factor synthetic phospholipids (thromboplastin), was incubated at 24° C. with 1.5 mM chromogenic Pefachrome® FVIIa (Loxo) and various concentrations of the test compound in assay buffer. Measurements were performed in a kinetic interval every 2nd minute for 16 min using a Spectramax M5 (Molecular Devices) measuring the optical absorbance at 405 nm.
as §3

For a further assay, the target named is Human FVIIa (Homo sapiens (Human), UniProt P08709). Briefly: Inhibition of FVIIa (Ki). Conditions: substrate KM, enzyme FVIIa. As for the experimental part:
as §1
Human FVIIa (0.86 nM or 0.01 U/mL; Enzyme Research Laboratories) was incubated at 24° C. with 1.5 mM chromogenic Pefachrome® FVIIa (Loxo) and various concentrations of the test compound in assay buffer. Measurements were performed in a kinetic interval every 2nd minute for 16 min using a Spectramax M5 (Molecular Devices) measuring the optical absorbance at 405 nm.
as §2

Each structure is given as a SMILES string. Square brackets hold non-standard residues; d marks the D form. Peptide text beside a SMILES is read from it. * marks the point of attachment. pNA = O=[N+]([O-])c1ccc(N*)cc1; AMC = Cc1cc(=O)oc2cc(N*)ccc12; Cha = N[CH](CC1CCCCC1)C(=O)O; Abu = CC[CH](N)C(=O)O; Ms = CS(=O)(=O)*

T1 sequence (P03952 391-638): as the sequence (P03952 391-638) above
T1 sequence (P03952 20-390 partner): as the sequence (P03952 20-390 partner) above
Sequence of Human plasmin (P00747 581-810): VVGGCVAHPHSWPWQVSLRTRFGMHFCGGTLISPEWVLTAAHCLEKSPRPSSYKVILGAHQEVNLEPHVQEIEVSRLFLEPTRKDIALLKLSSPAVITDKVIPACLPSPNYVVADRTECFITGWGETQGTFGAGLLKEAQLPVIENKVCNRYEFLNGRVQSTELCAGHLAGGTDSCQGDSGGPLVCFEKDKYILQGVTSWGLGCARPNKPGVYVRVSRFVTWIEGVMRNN
Sequence of Human plasmin (P00747 97-580 partner): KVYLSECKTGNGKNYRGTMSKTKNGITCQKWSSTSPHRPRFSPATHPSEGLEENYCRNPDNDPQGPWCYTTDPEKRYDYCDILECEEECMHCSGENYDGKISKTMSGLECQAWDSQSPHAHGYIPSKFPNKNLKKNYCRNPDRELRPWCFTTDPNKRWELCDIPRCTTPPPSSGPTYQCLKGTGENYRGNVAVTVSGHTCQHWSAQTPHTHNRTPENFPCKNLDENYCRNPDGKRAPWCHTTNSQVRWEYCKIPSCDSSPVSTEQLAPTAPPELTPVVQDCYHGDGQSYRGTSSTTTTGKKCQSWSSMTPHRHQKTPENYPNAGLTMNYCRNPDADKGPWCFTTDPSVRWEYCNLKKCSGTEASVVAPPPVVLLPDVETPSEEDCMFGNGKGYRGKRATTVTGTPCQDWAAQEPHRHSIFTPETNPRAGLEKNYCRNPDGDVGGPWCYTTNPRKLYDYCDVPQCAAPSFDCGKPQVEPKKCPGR
Sequence of FVIIa/TF/PL/CaCl2 (P08709 213-466): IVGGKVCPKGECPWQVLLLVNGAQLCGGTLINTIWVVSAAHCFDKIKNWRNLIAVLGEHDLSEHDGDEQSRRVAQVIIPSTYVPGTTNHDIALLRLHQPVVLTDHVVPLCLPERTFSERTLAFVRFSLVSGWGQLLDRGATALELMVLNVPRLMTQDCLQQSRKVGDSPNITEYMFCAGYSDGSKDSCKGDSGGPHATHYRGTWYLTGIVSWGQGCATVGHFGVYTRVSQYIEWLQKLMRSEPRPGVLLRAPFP
Sequence of FVIIa/TF/PL/CaCl2 (P08709 61-212 partner): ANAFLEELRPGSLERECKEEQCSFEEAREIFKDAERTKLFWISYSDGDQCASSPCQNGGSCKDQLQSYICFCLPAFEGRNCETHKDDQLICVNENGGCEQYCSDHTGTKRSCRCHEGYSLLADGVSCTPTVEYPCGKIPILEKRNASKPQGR
Sequence of FVIIa/TF/PL/CaCl2 (P13726 33-295 partner): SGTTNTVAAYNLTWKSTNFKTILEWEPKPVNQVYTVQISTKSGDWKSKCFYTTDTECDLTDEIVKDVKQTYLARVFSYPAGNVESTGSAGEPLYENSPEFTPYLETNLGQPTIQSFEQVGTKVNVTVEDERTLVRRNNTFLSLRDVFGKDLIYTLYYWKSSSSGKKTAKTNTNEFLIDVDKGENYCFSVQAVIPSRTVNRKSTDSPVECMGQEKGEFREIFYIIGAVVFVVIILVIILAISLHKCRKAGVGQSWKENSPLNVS
Sequence of Human FVIIa (P08709 213-466): as the sequence (P08709 213-466) above
Sequence of Human FVIIa (P08709 61-212 partner): as the sequence (P08709 61-212 partner) above

As for `Cc1nc(N2CC3(CCC3)C2)ccc1Cn1cc(C(=O)NCc2cc(Cl)ccc2-n2cnnn2)cn1` [Example 59, 1-[(6-{2-azaspiro[3.3]heptan-2-yl}-2-methylpyridin-3-yl)methyl]-N-{[5-chloro-2-(1H-1,2,3,4-tetrazol-1-yl)phenyl]methyl}-1H-pyrazole-4-carboxamide], in assay [1], the IC90 came to 847 nM. Moreover, half-maximal inhibition against Human PKK [2] (IC50) required 0.7 nM. This compound also gave a Ki on Human PKK [3] of 0.3 nM.
The matching figures for `Cc1nc(N2CC3CC3C2)ccc1Cn1cc(C(=O)NCc2cc(Cl)ccc2-n2cnnn2)c(N)n1` (stereo not shown) [Example 48]: 316 nM, 0.8 nM and 0.5 nM.
The corresponding values for `Cc1nc(N2CC3CC3C2)ccc1Cn1cc(C(=O)NCc2cc(Cl)ccc2-n2cnnn2)c2cncnc21` (stereo not shown) [Example 15] are 419 nM, 2 nM and 0.7 nM.
In the case of `Cc1cc(=O)oc2cc(NC(=O)[C@H](CCCNC(=N)N)NC(=O)[C@H](Cc3ccccc3)NC(=O)[C@@H]3CCCN3)ccc12` [Example I1295, H-Pro-Phe-Arg-AMC] (H-Pro-Phe-Arg-{AMC}), the Km at human TK1 was 70 µM.
For `Cc1nc(N2CC3CC3C2)ccc1Cn1cc(C(=O)NCc2cc(Cl)ccc2-n2cnnn2)cn1` (stereo not shown) [Example 1, 1-[(6-{3-azabicyclo[3.1.0]hexan-3-yl}-2-methylpyridin-3-yl)methyl]-N-{[5-chloro-2-(1H-1,2,3,4-tetrazol-1-yl)phenyl]-methyl}-1H-pyrazole-4-carboxamide], the IC90 in assay [1] amounted to 202 nM. The compound also gave an IC50 on Human PKK [2] of 0.5 nM. The Ki at Human PKK [3] stood at 0.3 nM.
Take `Cc1ccc(-n2cnnn2)c(CNC(=O)c2cnn(Cc3ccc(N4CC5CC5C4)nc3C)c2)c1` (stereo not shown) [Example 5]: the IC90 in assay [1] is 316 nM. The same compound had an IC50 against Human PKK [2] of 0.9 nM. Also, at Human PKK [3], the affinity corresponds to a Ki of 0.4 nM.
For `COc1nn(Cc2ccc(N3CC4CC4C3)nc2C)cc1C(=O)NCc1cc(Cl)ccc1-n1cnnn1` (stereo not shown) [Example 21], the IC90 in assay [1] stood at 713 nM. At Human PKK [2], this compound returned an IC50 of 3 nM. The compound also had a Ki on Human PKK [3] of 1 nM.
The corresponding values for `Cc1nc(N2C[C@@H]3[C@H](C)[C@@H]3C2)ccc1Cn1cc(C(=O)NCc2cc(Cl)ccc2-n2cnnn2)cn1` [Example 87] are 252 nM, 0.9 nM and 0.8 nM.
`O=C(NCc1cc(Cl)ccc1-n1cnnn1)c1cn(Cc2ccc(N3CC4CC4C3)nc2)c2ncccc12` (stereo not shown) [Example 45]: the IC90 in assay [1] turned out to be 106 nM. For the same compound, the IC50 against Human PKK [2] was 3 nM. Also, on Human PKK [3], the Ki was determined as 0.3 nM.
The matching figures for `Cc1nc(N2CC3CC3C2)ccc1Cn1cc(C(=O)NCc2c(-n3cnnn3)ccc(Cl)c2F)cn1` (stereo not shown) [Example 3]: 170 nM, 0.4 nM and 0.2 nM.
The corresponding values for `Cc1nc(N2CC3CC3C2)ccc1Cn1cc(C(=O)NCc2cc(Cl)ccc2-n2cnnn2)c(-c2cnn(C)c2)n1` (stereo not shown) [Example 42] are 257 nM, 0.6 nM and 1 nM.
The corresponding values for `Cn1cc(-c2nn(Cc3ccc(N4CC5CC5C4)nc3)cc2C(=O)NCc2cc(Cl)ccc2-n2cnnn2)cn1` (stereo not shown) [Example 46] are 341 nM, 0.7 nM and 1 nM.
Regarding `COCc1nn(Cc2ccc(N3CC4CC4C3)nc2C)cc1C(=O)NCc1cc(Cl)ccc1-n1cnnn1` (stereo not shown) [Example 13], the IC90 in assay [1] came out at 396 nM. In addition, the IC50 at Human PKK [2] is 0.9 nM. In addition, on Human PKK [3], the Ki was 0.8 nM.
`Cc1nc(N2CC3CC3C2)ccc1Cn1cc(C(=O)NCc2cc(Cl)ccc2-n2cnnn2)c(Br)n1` (stereo not shown) [Example 49]: the IC90 in assay [1] is 932 nM. On Human PKK [2], this compound returned a 50% inhibitory concentration (IC50) of 1 nM. Affinity on Human PKK [3] was put at a Ki of 0.4 nM.
As for `Cc1nc(N2CC3CC3C2)ccc1Cn1cc(C(=O)NCc2cc(Cl)ccc2-n2cnnn2)c(C(F)F)n1` (stereo not shown) [Example 9], in assay [1], the concentration for an effect of 90% (IC90) amounted to 239 nM. On Human PKK [2], this compound returned an IC50 of 1 nM. On Human PKK [3], the Ki is 0.8 nM.
Consider `O=C(NCc1cc(Cl)ccc1-n1cnnn1)c1cn(Cc2ccc(N3CC4CC4C3)nc2)nc1C(F)F` (stereo not shown) [Example 44], for which, in assay [1], the 90% effect concentration (IC90) came out at 341 nM. Besides, on Human PKK [2], half-maximal inhibition (IC50) required 1 nM. Also, on Human PKK [3], the affinity corresponds to a Ki of 0.5 nM.
The matching figures for `Cc1nc(N2CC3(C2)CC3(F)F)ccc1Cn1cc(C(=O)NCc2cc(Cl)ccc2-n2cnnn2)cn1` [Example 54]: 969 nM, 3 nM and 1 nM.
The corresponding values for `Nc1nn(Cc2ccc(N3CC4CC4C3)nc2)cc1C(=O)NCc1cc(Cl)ccc1-n1cnnn1` (stereo not shown) [Example 52] are 103 nM, 0.6 nM and 0.4 nM.
The matching figures for `Cc1nc(N2CC3CC3C2)ccc1Cn1cc(C(=O)NCc2cc(Cl)c(F)cc2-n2cnnn2)cn1` (stereo not shown) [Example 2]: 1150 nM, 5 nM and 0.8 nM.
In the case of `Cc1nc(N2CCC3(CCC3)C2)ccc1Cn1cc(C(=O)NCc2cc(Cl)ccc2-n2cnnn2)cn1` [Example 60, 1-[(6-{6-azaspiro[3.4]octan-6-yl}-2-methylpyridin-3-yl)methyl]-N-{[5-chloro-2-(1H-1,2,3,4-tetrazol-1-yl)phenyl]methyl}-1H-pyrazole-4-carboxamide], the IC90 in assay [1] is 4070 nM. This compound also returned an IC50 on Human PKK [2] of 4 nM. On Human PKK [3], this compound gave a Ki of 2 nM.
With `CC(C)C[C@H](NC(=O)[C@H](N)C(C)C)C(=O)N[C@@H](CCCCN)C(=O)Nc1ccc([N+](=O)[O-])cc1` [Example S2251] (H-[dV]-Leu-Lys-pNA), the Km on Human plasmin is 1450 µM.
`CCC(NC(=O)C(CC1CCCCC1)NS(C)(=O)=O)C(=O)NC(CCCN=C(N)N)C(=O)Nc1ccc([N+](=O)[O-])cc1` (stereo not shown) [Pefachrome ® FVIIa] (Ms-[Cha]-[Abu]-Arg-pNA; configuration not given here): the figures for the Km on FVIIa/TF/PL/CaCl2 and on Human FVIIa were 3920 µM and 420 µM, respectively.
`Cc1nc(N2CC3(CC3)C2)ccc1Cn1cc(C(=O)NCc2cc(Cl)ccc2-n2cnnn2)cn1` [Example 63, 1-[(6-{5-azaspiro[2.3]hexan-5-yl}-2-methylpyridin-3-yl)methyl]-N-{[5-chloro-2-(1H-1,2,3,4-tetrazol-1-yl)phenyl]methyl}-1H-pyrazole-4-carboxamide]: the IC90 in assay [1] turned out to be 209 nM. The compound further came in with an IC50 on Human PKK [2] of 0.5 nM. The compound further returned an inhibition constant Ki at Human PKK [3] of 0.3 nM.
With `COc1nn(Cc2ccc(N3CC4CC4C3)nc2)cc1C(=O)NCc1cc(Cl)ccc1-n1cnnn1` (stereo not shown) [Example 47], the 90% effect concentration (IC90) in assay [1] came out at 711 nM. Moreover, the half-inhibitory concentration (IC50) at Human PKK [2] worked out at 3 nM. On Human PKK [3], this compound registered a Ki of 0.7 nM.
